Reference: the supplement of paper PMC11208160

Test: recombinant UMI read abundance after kanamycin selection (control-corrected) (log10(CPM+1)); higher = more efficient recombination; extreme values may be limits of the assay; sequences stand for … in AGTGCAGAGAAAATCGGCCAGTTTTCTCTGCCTGCAGTCCGCATGCCGTGGGACCCCTTGGGTTCTAACCTGTTGCCTAGATTTATGCAGCGGACTGCCTTTCTCCCAAAGTGATAAACCGG…AGGTTGGTTTCACT; site = the 11-nt donor
Procedure: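 Pooled E. coli donor-specificity screen for the IS621 bridge recombinase. Each library member carries a reprogrammed 11-nt donor and a full-length LE bridge RNA expressed in cis from the natural promoter, with a paired donor-binding loop (8-nt LDG + 4-nt RDG) and a target-binding loop fixed to T5. It is co-electroporated with a T5 target plasmid; recombinase is induced with 0.07 mM IPTG and recombinants are selected on kanamycin. UMIs are counted as CPM, averaged over two biological replicates and corrected by the unselected control. Molecule = full bridge RNA written as DNA, built from the T5 scaffold: LDG = donor specificity nt 1-8, RDG = reverse complement of nt 8-11.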
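Further: IS621 bridge recombinase in Escherichia coli cells against a fixed T5 target plasmid.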

Row | Sequence | recombinant UMI read abundance (log10)
1 | AATGTGTCATGGACCGGTTTTCCCGGTAATCCGTATTTGAC (site AATGTCTCTGT) | 0
2 | AATGTGTCATGGACCGGTTTTCCCGGTAATCCGTATTTGAC (site AATGTGACTGT) | 0.00331
3 | AATGTGTCATGGACCGGTTTTCCCGGTAATCCGTATTTGAC (site AATGTGCCTGT) | 0
4 | AATGTGTCATGGACCGGTTTTCCCGGTAATCCGTATTTGAC (site AATGTGGCTGT) | 0
5 | AATGTGTCATGGACCGGTTTTCCCGGTAATCCGTATTTGAC (site AATGTGTCTAT) | 0.00893
6 | AATGTGTCATGGACCGGTTTTCCCGGTAATCCGTATTTGAC (site AATGTGTCTCT) | 0.028
7 | AATGTGTCATGGACCGGTTTTCCCGGTAATCCGTATTTGAC (site AATGTGTCTGA) | 0
8 | AATGTGTCATGGACCGGTTTTCCCGGTAATCCGTATTTGAC (site AATGTGTCTGC) | 0
9 | AATGTGTCATGGACCGGTTTTCCCGGTAATCCGTATTTGAC (site AATGTGTCTGG) | 0
10 | AATGTGTCATGGACCGGTTTTCCCGGTAATCCGTATTTGAC (site AATGTGTCTGT) | 1.77
11 | AATGTGTCATGGACCGGTTTTCCCGGTAATCCGTATTTGAC (site AATGTGTCTTT) | 0.181
12 | AATGTGTCATGGACCGGTTTTCCCGGTAATCCGTATTTGAC (site AATGTTTCTGT) | 0
13 | AATGTGTCATGGACCGGTTTTCCCGGTAATCCGTATTTGAC (site AATTTGTCTGT) | 0
14 | AATGTGTCATGGACCGGTTTTCCCGGTAATCCGTATTTGAC (site ACTGTGTCTGT) | 0
15 | AATGTGTCATGGACCGGTTTTCCCGGTAATCCGTATTTGAC (site AGTGTGTCTGT) | 0
16 | AATGTGTCATGGACCGGTTTTCCCGGTAATCCGTATTTGAC (site ATTGTGTCTGT) | 0.71
17 | AATGTGTCATGGACCGGTTTTCCCGGTAATCCGTATTTGAC (site CATGTGTCTGT) | 0.999
18 | AATGTGTCATGGACCGGTTTTCCCGGTAATCCGTATTTGAC (site GATGTGTCTGT) | 0
19 | AATGTGTCATGGACCGGTTTTCCCGGTAATCCGTATTTGAC (site TATGTGTCTGT) | 1.95
20 | AATGTGTCATGGACCGGTTTTCCCGGTAATCCGTATTTGTC (site AATGTGTCTGA) | 2.97
21 | AATGTGTCATGGACCGGTTTTCCCGGTAATCCGTATTTGTC (site AATGTGTCTGC) | 0.999
22 | AATGTGTCATGGACCGGTTTTCCCGGTAATCCGTATTTGTC (site AATGTGTCTGG) | 1.29
23 | AATGTGTCATGGACCGGTTTTCCCGGTAATCCGTATTTGTC (site AATGTGTCTGT) | 0.364
24 | AATTACGCATGGACCGGTTTTCCCGGTAATCCGTATTTGGA (site AATTAAGCTTC) | 0.428

Row | Sequence | recombinant UMI read abundance (log10)
25 | AATTACGCATGGACCGGTTTTCCCGGTAATCCGTATTTGGA (site AATTACGCTTC) | 0.807
26 | AATTACGCATGGACCGGTTTTCCCGGTAATCCGTATTTGGA (site AATTAGGCTTC) | 0.158
27 | AATTACGCATGGACCGGTTTTCCCGGTAATCCGTATTTGGA (site AATTATGCTTC) | 0.344
28 | AATTATGCATGGACCGGTTTTCCCGGTAATCCGTATTTGCA (site AATTATGCTTA) | 0.00932
29 | AATTATGCATGGACCGGTTTTCCCGGTAATCCGTATTTGCA (site AATTATGCTTC) | 0.00784
30 | AATTATGCATGGACCGGTTTTCCCGGTAATCCGTATTTGCA (site AATTATGCTTG) | 1.85
31 | AATTATGCATGGACCGGTTTTCCCGGTAATCCGTATTTGCA (site AATTATGCTTT) | 0.00931
32 | AATTCTGCATGGACCGGTTTTCCCGGTAATCCGTATTTGGA (site AATTATGCTTC) | 0.384
33 | AATTCTGCATGGACCGGTTTTCCCGGTAATCCGTATTTGGA (site AATTCTGCTTC) | 0.349
34 | AATTCTGCATGGACCGGTTTTCCCGGTAATCCGTATTTGGA (site AATTGTGCTTC) | 0.0372
35 | AATTCTGCATGGACCGGTTTTCCCGGTAATCCGTATTTGGA (site AATTTTGCTTC) | 0.00758
36 | AATTGGACATGGACCGGTTTTCCCGGTAATCCGTATTTGAC (site AATTGGACTGT) | 1.21
37 | AATTGGACATGGACCGGTTTTCCCGGTAATCCGTATTTGAC (site CATTGGACTGT) | 0.955
38 | AATTGGACATGGACCGGTTTTCCCGGTAATCCGTATTTGAC (site GATTGGACTGT) | 0.231
39 | AATTGGACATGGACCGGTTTTCCCGGTAATCCGTATTTGAC (site TATTGGACTGT) | 1.67
40 | AATTGTACATGGACCGGTTTTCCCGGTAATCCGTATTTGTC (site AATTGTACTGA) | 0.692
41 | AATTGTGCATGGACCGGTTTTCCCGGTAATCCGTATTTGAC (site AATTGTGCTGT) | 2.25
42 | AATTGTGCATGGACCGGTTTTCCCGGTAATCCGTATTTGCC (site AATTGTGCTGG) | 0.735
43 | AATTTAACATGGACCGGTTTTCCCGGTAATCCGTATTTGCT (site AATATAACTAG) | 1.68
44 | AATTTAACATGGACCGGTTTTCCCGGTAATCCGTATTTGCT (site AATCTAACTAG) | 1.95
45 | AATTTAACATGGACCGGTTTTCCCGGTAATCCGTATTTGCT (site AATGTAACTAG) | 0.828
46 | AATTTAACATGGACCGGTTTTCCCGGTAATCCGTATTTGCT (site AATTTAACTAG) | 2.28
47 | AATTTATCATGGACCGGTTTTCCCGGTAATCCGTATTTGTT (site AATTTATCTAA) | 0.558
48 | ACAAACCCATGGACCGGTTTTCCCGGTAATCCGTATTTGGG (site ACAAACCCTCC) | 0

Row | Sequence | recombinant UMI read abundance (log10)
49 | ACAAATCCATGGACCGGTTTTCCCGGTAATCCGTATTTGAC (site ACAAATCCTGT) | 0.255
50 | ACAAATCCATGGACCGGTTTTCCCGGTAATCCGTATTTGAC (site ACACATCCTGT) | 0
51 | ACAAATCCATGGACCGGTTTTCCCGGTAATCCGTATTTGAC (site ACAGATCCTGT) | 0
52 | ACAAATCCATGGACCGGTTTTCCCGGTAATCCGTATTTGAC (site ACATATCCTGT) | 0
53 | ACAATCGCATGGACCGGTTTTCCCGGTAATCCGTATTTGAA (site ACAATCGCTTT) | 2.55
54 | ACAATGTCATGGACCGGTTTTCCCGGTAATCCGTATTTGCG (site ACAATGTCTCG) | 3.04
55 | ACACAAACATGGACCGGTTTTCCCGGTAATCCGTATTTGTC (site ACACAAACTGA) | 2.41
56 | ACACAAACATGGACCGGTTTTCCCGGTAATCCGTATTTGTC (site ACACCAACTGA) | 0
57 | ACACAAACATGGACCGGTTTTCCCGGTAATCCGTATTTGTC (site ACACGAACTGA) | 0
58 | ACACAAACATGGACCGGTTTTCCCGGTAATCCGTATTTGTC (site ACACTAACTGA) | 0
59 | ACACAACCATGGACCGGTTTTCCCGGTAATCCGTATTTGAC (site ACACAACCTGT) | 0
60 | ACACAACCATGGACCGGTTTTCCCGGTAATCCGTATTTGAC (site ACACACCCTGT) | 0
61 | ACACAACCATGGACCGGTTTTCCCGGTAATCCGTATTTGAC (site ACACAGCCTGT) | 0.668
62 | ACACAACCATGGACCGGTTTTCCCGGTAATCCGTATTTGAC (site ACACATCCTGT) | 0
63 | ACACATCCATGGACCGGTTTTCCCGGTAATCCGTATTTGAT (site ACACATCCTAT) | 1.34
64 | ACACATCCATGGACCGGTTTTCCCGGTAATCCGTATTTGAT (site ACACATCCTCT) | 0.0152
65 | ACACATCCATGGACCGGTTTTCCCGGTAATCCGTATTTGAT (site ACACATCCTGT) | 0
66 | ACACATCCATGGACCGGTTTTCCCGGTAATCCGTATTTGAT (site ACACATCCTTT) | 0.0785
67 | ACACATGCATGGACCGGTTTTCCCGGTAATCCGTATTTGAC (site ACACATACTGT) | 2.59
68 | ACACATGCATGGACCGGTTTTCCCGGTAATCCGTATTTGAC (site ACACATCCTGT) | 1.71
69 | ACACATGCATGGACCGGTTTTCCCGGTAATCCGTATTTGAC (site ACACATGCTGT) | 2.6
70 | ACACATGCATGGACCGGTTTTCCCGGTAATCCGTATTTGAC (site ACACATTCTGT) | 0.598
71 | ACACATTCATGGACCGGTTTTCCCGGTAATCCGTATTTGAC (site ACACATACTGT) | 0.745
72 | ACACATTCATGGACCGGTTTTCCCGGTAATCCGTATTTGAC (site ACACATCCTGT) | 0.331
